# Reference: patent US20230321253A1, “BIFUNCTIONAL COMPOUNDS AND PHARMACEUTICAL USES THEREOF” (RISEN (SUZHOU) PHARMA TECH CO., LTD., priority 2022, published 2023)
# Molecular target: T1, KRAS-G12D protein (Homo sapiens, UniProt P01116, G12D)
# T1 construct: host or cells: Aspc-1 cells
# Experiment: KRAS-G12D protein degradation study in Aspc-1 cells (western blot)
# Format: cell-based
# Settings: for inhibition at 0.1 µM / inhibition at 0.05 µM: ASPC1, 24 h; for inhibition at 0.1 µM: read-out: Rate of protein degradation (KRAS^G12D); for inhibition at 0.05 µM: Aspc-1 cells treated with 50 nM compound, read-out: Rate of degradation (KRAS^G12D)
# Method: Aspc-1 (Cobioer, CBP60546) cells in exponential growth phase were inoculated on a 6-well cell culture plate (Corning, 3516) at density of 1E6/well; and cells in the plate were cultured in 37° C. incubator containing 5% carbon dioxide. The next day, test compounds were dissolved in DMSO (Sigma, RNBF5902) for the preparation of a 10 mM concentration stock solution. The stock solution was diluted with complete medium (RPMI-1640 supplemented with 10% fetal bovine serum, 1% penicillin-streptomycin), yielding working solutions of various concentrations. The plate, after the addition of compounds, was placed in a 5% carbon dioxide incubator, and incubated at 37° C. for 24 hours (final DMSO concentration was 0.1%). The plate was then removed from the incubator, and the cells were washed twice with precooled PBS (Gibco, 14190250), followed by addition of 80 μL RIPA lysis buffer (containing protease inhibitor (Invitrogen™, AM2696)) to each well. The adherent cells were scraped off with a cell scraper, and the cell lysate was transferred to a 1.5 mL centrifuge tube followed with a 30-minute incubation on ice. The lysate was then clarified with centrifugation at 14000 rpm for 10 min at 4° C. The supernatant was transferred into a new 1.5 mL centrifuge tube, and protein concentration was measured with BCA protein detection kit (Thermo Fisher, 23225). KRAS-G12D protein level was assessed by western blot.
# A mixture of cell lysate (40 μL) and loading buffer (10 μL 5×SDS (Beyotime, P0015L)) was denatured in a water bath at 95° C. for 10 min. The denatured protein sample, at 30 μL/well, was loaded into the corresponding well of a 4-20% Bis-Tris gel (Kingsley, M00656). Protein samples were initially electrophoresed at 80 V for 30 minutes, followed by 120 V for 40 minutes, until the bromophenol blue strip ran to an appropriate position. After electrophoresis, iBlot2 (Life Technologies, IB21001) was used to transfer the separated samples onto PVDF film. The PVDF membrane was washed with double-distilled water and then blocked in TBST (Thermo Scientific, 28360) buffer containing 5% non-fat milk, for 2 hours. Blocked membrane was rinsed with tris-buffered saline tween-20 (Thermo Scientific, 28360, TBST) three times, 10 minutes each. Membrane was then incubated with 1:1000 diluted KRAS primary antibody (CST, cat #14429S) overnight at 4° C. Membrane was rinsed as described previously followed by 1 hour incubation of secondary antibody at room temperature. After washing the film three times with TBST, ECL color developing solution was applied, and image was captured with Biorad Chemi Doc gel imager. The band gray value was quantified (Image Lab), and protein degradation level was calculated according to the following formula:
# Level of RAS protein expression=(RAS-compound/GAPDH)/(RAS-DMSO/GAPDH)
# Level of degradation (%)=(1−Rate of RAS protein expression)×100
# The symbols “−”, “+”, “++”, and “+++” indicate that the degradation level of KRAS^G12D protein induced by the test compounds was 10% or less, 11 to 30%, 31 to 60%, and greater than 60%, respectively.
# Half-maximum degradation concentrations (DC50s) of exemplary test compounds were calculated using GraphPad Prism and their values are shown in Table 6. The symbols “++++”, “+++”, “++” and “+” indicate DC50 equal or less than 10 nM, 11-50 nM, 51-100 nM, and 101-200 nM, respectively.
# [1] = Aspc-1 cells treated with 0.1 μM compound, 24 hours
# T1 sequence (P01116 1-188 isoform P01116-2 G12D): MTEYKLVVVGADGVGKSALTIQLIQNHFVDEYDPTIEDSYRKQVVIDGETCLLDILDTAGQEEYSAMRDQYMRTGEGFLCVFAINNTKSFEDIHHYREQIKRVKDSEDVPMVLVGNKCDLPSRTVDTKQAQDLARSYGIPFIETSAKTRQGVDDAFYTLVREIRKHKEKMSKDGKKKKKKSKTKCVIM
smiles,measurement,setting,value
C#Cc1c(F)ccc2cc(O)cc(-c3ncc4c(N5CC6CCC(C5)N6)nc(OCC5(CN6CCN(C7CC(C(=O)N8CCC(c9ccc%10c(C%11CCC(=O)NC%11=O)nn(C)c%10c9)CC8)C7)CC6)CC5)nc4c3F)c12 (stereo not drawn) [Compound 118],inhibition at 0.1 µM,[1],> 60%
same,DC50,"Aspc-1 cells, read-out: DC50 of test compound-induced KRAS^G12D protein degradation",< 10 nM
C#Cc1c(F)ccc2cc(O)cc(-c3ncc4c(N5CC6CCC(C5)N6)nc(OCC5(CN6CCN(C(=O)CN7CCC(c8ccc9c(C%10CCC(=O)NC%10=O)nn(C)c9c8)CC7)CC6)CC5)nc4c3F)c12 (stereo not drawn) [Compound 119],Rate of protein degradation (KRAS^G12D),[1],+ (11 to 30%)
C#Cc1c(F)ccc2cc(O)cc(-c3ncc4c(N5CC6CCC(C5)N6)nc(OCC5(CN6CCN(c7ccc(NC8CCC(=O)NC8=O)cc7F)CC6)CC5)nc4c3F)c12 (stereo not drawn) [Compound 124],inhibition at 0.05 µM,24 hours,11 to 30%
C#Cc1c(F)ccc2cc(O)cc(-c3ncc4c(N5CC6CCC(C5)N6)nc(OCC5(CN6CCC7(CCN(c8ccc(NC9CCC(=O)NC9=O)cc8F)CC7)C6)CC5)nc4c3F)c12 (stereo not drawn) [Compound 125],inhibition at 0.05 µM,24 hours,31 to 60%
C#Cc1c(F)ccc2cc(O)cc(-c3ncc4c(N5CC6CCC(C5)N6)nc(OCC5(CN6CCN(C(=O)CN7CCN(c8ccc(C(=O)NC9CCC(=O)NC9=O)nc8)CC7)CC6)CC5)nc4c3F)c12 (stereo not drawn) [Compound 126],inhibition at 0.05 µM,24 hours,≤ 10%
C#Cc1c(F)ccc2cc(O)cc(-c3ncc4c(N5CC6CCC(C5)N6)nc(OCC5(CN6CCC7(CC6)CCN(c6ccc8c(c6)C(=O)N(C6CCC(=O)NC6=O)C8=O)CC7)CC5)nc4c3F)c12 (stereo not drawn) [Compound 127],inhibition at 0.05 µM,24 hours,> 60%
Cn1nc(C2CCC(=O)NC2=O)c2ccc(C3CCN(CC(=O)N4CCN(CC5(COc6nc(N7CC8CCC(C7)N8)c7cnc(-c8cc(N)cc(Cl)c8C(F)(F)F)c(F)c7n6)CC5)CC4)CC3)cc21 (stereo not drawn) [Compound 128],inhibition at 0.05 µM,24 hours,> 60%
C#Cc1c(F)ccc2cc(O)cc(-c3ncc4c(N5CC6CCC(C5)N6)nc(OC5CCN(CCCCCCOc6cc(-c7scnc7C)ccc6CNC(=O)[C@@H]6C[C@@H](O)CN6C(=O)[C@@H](NC(=O)C6(F)CC6)C(C)(C)C)CC5)nc4c3F)c12 [Compound 131],inhibition at 0.1 µM,[1],≤ 10%
C#Cc1c(F)ccc2cc(O)cc(-c3ncc4c(N5CC6CCC(C5)N6)nc(OCCN5CCN(C(=O)CCCCCOc6cc(-c7scnc7C)ccc6CNC(=O)[C@@H]6C[C@@H](O)CN6C(=O)[C@@H](NC(=O)C6(F)CC6)C(C)(C)C)CC5)nc4c3F)c12 [Compound 132],inhibition at 0.1 µM,[1],11 to 30%
C#Cc1c(F)ccc2cc(O)cc(-c3ncc4c(N5CC6CCC(C5)N6)nc(OCC5(CN6CC(CN7CCN(c8ccc(C(=O)NC9CCC(=O)NC9=O)nc8)CC7)C6)CC5)nc4c3F)c12 (stereo not drawn) [Compound 134],inhibition at 0.05 µM,24 hours,11 to 30%
C#Cc1c(F)ccc2cc(O)cc(-c3ncc4c(N5CC6CCC(C5)N6)nc(OCC5(CN6CCC(CN7CCN(c8ccc(C(=O)NC9CCC(=O)NC9=O)nc8)CC7)CC6)CC5)nc4c3F)c12 (stereo not drawn) [Compound 136],inhibition at 0.05 µM,24 hours,≤ 10%
C#Cc1c(F)ccc2cc(O)cc(-c3ncc4c(N5CC6CCC(C5)N6)nc(OCC5(CN(C)C(=O)CC(C)(C)CC(=O)N6CCC(c7ccc8c(C9CCC(=O)NC9=O)nn(C)c8c7)CC6)CC5)nc4c3F)c12 (stereo not drawn) [Compound 137],inhibition at 0.05 µM,24 hours,≤ 10%
C#Cc1c(F)ccc2cc(O)cc(-c3ncc4c(N5CC6CCC(C5)N6)nc(OCC5(CN6CC7CN(C(=O)CN8CCC(c9ccc%10c(C%11CCC(=O)NC%11=O)nn(C)c%10c9)CC8)CC7C6)CC5)nc4c3F)c12 (stereo not drawn) [Compound 138],inhibition at 0.05 µM,24 hours,> 60%
C#Cc1c(F)ccc2cc(O)cc(-c3ncc4c(N5CC6CCC(C5)N6)nc(OCC5(CN6CCC(N7CCC(c8ccc9c(C%10CCC(=O)NC%10=O)nn(C)c9c8)CC7)C(F)(F)C6)CC5)nc4c3F)c12 (stereo not drawn) [Compound 139],inhibition at 0.05 µM,24 hours,31 to 60%
C#Cc1c(F)ccc2cc(O)cc(-c3ncc4c(N5CC6CCC(C5)N6)nc(OCC5(CN6CCC(C7CCN(c8ccc(NC9CCC(=O)NC9=O)cc8F)CC7)CC6)CC5)nc4c3F)c12 (stereo not drawn) [Compound 140],inhibition at 0.05 µM,24 hours,31 to 60%
C#Cc1c(F)ccc2cc(O)cc(-c3ncc4c(N5CC6CCC(C5)N6)nc(OCC5(CN6CCC(CN7CCN(c8cc9c(cc8F)C(=O)N(C8CCC(=O)NC8=O)C9=O)CC7)CC6)CC5)nc4c3F)c12 (stereo not drawn) [Compound 141],inhibition at 0.05 µM,24 hours,11 to 30%
same,inhibition at 0.1 µM,[1],> 60%
C#Cc1c(F)ccc2cc(O)cc(-c3ncc4c(N5CC6CCC(C5)N6)nc(OCC5(CN6CCC(N7CCN(c8ccc(NC9CCC(=O)NC9=O)cc8F)CC7)CC6)CC5)nc4c3F)c12 (stereo not drawn) [Compound 142],inhibition at 0.05 µM,24 hours,31 to 60%
C#Cc1c(F)ccc2cc(O)cc(-c3ncc4c(N5CC6CCC(C5)N6)nc(OC5CCN(CCCCCNC(=O)CO[C@@H]6C[C@H](C)CC[C@H]6C(C)C)C5)nc4c3F)c12 (stereo partly drawn) [Compound 143],inhibition at 0.05 µM,24 hours,11 to 30%
C#Cc1c(F)ccc2cc(O)cc(-c3ncc4c(N5CC6CCC(C5)N6)nc(OCC5(CN6CC(CN7CCC(c8ccc9c(C%10CCC(=O)NC%10=O)nn(C)c9c8)CC7)C6)CC5)nc4c3F)c12 (stereo not drawn) [Compound 144],inhibition at 0.05 µM,24 hours,31 to 60%
C#Cc1c(F)ccc2cc(O)cc(-c3ncc4c(N5CC6CCC(C5)N6)nc(OCC5(CN6CCN(c7ccc(C(=O)NC8CCC(=O)NC8=O)nc7)CC6)CC5)nc4c3F)c12 (stereo not drawn) [Compound 145],inhibition at 0.05 µM,24 hours,≤ 10%
C#Cc1c(F)ccc2cc(O)cc(-c3ncc4c(N5CC6CCC(C5)N6)nc(OCC5(CN6CCC(CC(=O)N7CCC(c8ccc9c(C%10CCC(=O)NC%10=O)nn(C)c9c8)CC7)CC6)CC5)nc4c3F)c12 (stereo not drawn) [Compound 147],inhibition at 0.05 µM,24 hours,31 to 60%
C#Cc1c(F)ccc2cc(O)cc(-c3ncc4c(N5CC6CCC(C5)N6)nc(OC5CCN(CCOCCNC(=O)CO[C@@H]6C[C@H](C)CC[C@H]6C(C)C)C5)nc4c3F)c12 (stereo partly drawn) [Compound 148],inhibition at 0.05 µM,24 hours,≤ 10%
C#Cc1c(F)ccc2cc(O)cc(-c3ncc4c(N5CC6CCC(C5)N6)nc(OCC5(CN6CCC7(CC6)CC(N6CCN(c8cc9c(cc8F)C(=O)N(C8CCC(=O)NC8=O)C9=O)CC6)C7)CC5)nc4c3F)c12 (stereo not drawn) [Compound 152],inhibition at 0.05 µM,24 hours,31 to 60%
C#Cc1c(F)ccc2cc(O)cc(-c3ncc4c(N5CC6CCC(C5)N6)nc(OCC5(CN6CCC7(CC6)CC(N6CCN(c8cccc9c8C(=O)N(C8CCC(=O)NC8=O)C9=O)CC6)C7)CC5)nc4c3F)c12 (stereo not drawn) [Compound 153],inhibition at 0.05 µM,24 hours,31 to 60%
C#Cc1c(F)ccc2cc(O)cc(-c3ncc4c(N5CC6CCC(C5)N6)nc(OCC5(CN6CCC(C(=O)Nc7ccc8c(C9CCC(=O)NC9=O)nn(C)c8c7)CC6)CC5)nc4c3F)c12 (stereo not drawn) [Compound 159],inhibition at 0.05 µM,24 hours,31 to 60%
C#Cc1c(F)ccc2cc(O)cc(-c3ncc4c(N5CC6CCC(C5)N6)nc(OCC5(CN6CCC7(CC6)CC(N6CC=C(c8cccc9c8n(C)c(=O)n9C8CCC(=O)NC8=O)CC6)C7)CC5)nc4c3F)c12 (stereo not drawn) [Compound 161],inhibition at 0.05 µM,24 hours,31 to 60%
C#Cc1c(F)ccc2cc(O)cc(-c3ncc4c(N5CC6CCC(C5)N6)nc(OCC5(CN6CCC7(CC6)CC(N6CCC(c8cccc(C9CCC(=O)NC9=O)c8)CC6)C7)CC5)nc4c3F)c12 (stereo not drawn) [Compound 162],inhibition at 0.05 µM,24 hours,≤ 10%
C#Cc1c(F)ccc2cc(O)cc(-c3ncc4c(N5CC6CCC(C5)N6)nc(OCC5(CN6CCC7(CC6)CC(Nc6cccc8c(C9CCC(=O)NC9=O)n[nH]c68)C7)CC5)nc4c3F)c12 (stereo not drawn) [Compound 163],inhibition at 0.05 µM,24 hours,31 to 60%
C#Cc1c(F)ccc2cc(O)cc(-c3ncc4c(N5CC6CCC(C5)N6)nc(OCC5(CN6CCC(CNc7cccc8c(C9CCC(=O)NC9=O)nn(C)c78)CC6)CC5)nc4c3F)c12 (stereo not drawn) [Compound 165],inhibition at 0.05 µM,24 hours,31 to 60%
C#Cc1c(F)ccc2cc(O)cc(-c3ncc4c(N5CC6CCC(C5)N6)nc(OCC5(CN6CCC7(CC6)CC(N6CCC(c8ccc(C9CCC(=O)NC9=O)cc8)CC6)C7)CC5)nc4c3F)c12 (stereo not drawn) [Compound 166],inhibition at 0.05 µM,24 hours,> 60%
C#Cc1c(F)ccc2cc(O)cc(-c3ncc4c(N5CC6CCC(C5)N6)nc(OCC5(CN6CCC7(CC6)CC(Nc6ccc8c(C9CCC(=O)NC9=O)nn(C)c8c6)C7)CC5)nc4c3F)c12 (stereo not drawn) [Compound 167],inhibition at 0.05 µM,24 hours,> 60%
